Laboratory results published in patent US8952024B2, “Herbicidal pyrimidone derivatives” (E I du Pont de Nemours and Company, priority 2009, dated 2015).

Key:
Format in all cases: in vivo
[1] = system: barnyardgrass (Echinochloa crus-galli); assay: Test A pre-/postemergence plant response
Text: (§1) Seeds of barnyardgrass (Echinochloa crus-galli), large crabgrass (Digitaria sanguinalis), giant foxtail (Setaria faberii), morningglory (Ipomoea spp.), pigweed (Amaranthus retroflexus), velvetleaf (Abutilon theophrasti), wheat (Triticum aestivum) and corn (Zea mays) were planted into a blend of loam soil and sand and treated preemergence with a directed soil spray using test chemicals formulated in a non-phytotoxic solvent mixture which included a surfactant. At the same time these species were also treated with postemergence applications of test compounds formulated in the same manner.
(§2) Plants ranged in height from two to ten cm and were in the one- to two-leaf stage for the postemergence treatment. Treated plants and untreated controls were maintained in a greenhouse for approximately ten days, after which time all treated plants were compared to untreated controls and visually evaluated for injury. Plant response ratings, summarized in Table A, are based on a 0 to 100 scale where 0 is no effect and 100 is complete control. A dash (-) response means no test result.

corn (Zea mays) = assay: Test A pre-/postemergence plant response
Text: as §1, §2

[2] = system: giant foxtail (Setaria faberii); assay: Test A pre-/postemergence plant response
Text: as §1, §2

[3] = system: large crabgrass (Digitaria sanguinalis); assay: Test A pre-/postemergence plant response
Text: as §1, §2

[4] = system: morningglory (Ipomoea spp.); assay: Test A pre-/postemergence plant response
Text: as §1, §2

[5] = system: pigweed (Amaranthus retroflexus); assay: Test A pre-/postemergence plant response
Text: as §1, §2

[6] = system: velvetleaf (Abutilon theophrasti); assay: Test A pre-/postemergence plant response
Text: as §1, §2

[7] = system: wheat (Triticum aestivum); assay: Test A pre-/postemergence plant response
Text: as §1, §2

[8] = system: barnyardgrass (Echinochloa crus-galli); assay: Test B flooded paddy test; conditions: for Plant response rating, Flood, Barnyardgrass: 250 g ai/ha, flooded paddy test, visual rating on 0 to 100 scale (0 no effect, 100 complete control) after 13 to 15 days; for Plant response rating, Barnyardgrass: Flood (flooded paddy test), 13 to 15 days
Procedure, shortened: (§3)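 2-leaf seedlings; pots flooded 3 cm over soil at treatment; cpd dosed into floodwater, depth kept constant. Greenhouse 13–15 d. Visual rating vs untreated controls, 0 = no effect, 100 = complete control.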

[9] = system: ducksalad (Heteranthera limosa); assay: Test B flooded paddy test; conditions: for Plant response rating, Flood, Ducksalad: 250 g ai/ha, flooded paddy test, visual rating on 0 to 100 scale (0 no effect, 100 complete control) after 13 to 15 days; for Plant response rating, Ducksalad: Flood (flooded paddy test), 13 to 15 days
Procedure, shortened: as §3

rice (Oryza sativa) = assay: Test B flooded paddy test; conditions: for Plant response rating, Flood, Rice: 250 g ai/ha, flooded paddy test, visual rating on 0 to 100 scale (0 no effect, 100 complete control) after 13 to 15 days; for Plant response rating, Rice: Flood (flooded paddy test), 13 to 15 days
Procedure, shortened: as §3

[10] = system: umbrella sedge (Cyperus difformis); assay: Test B flooded paddy test; conditions: for Plant response rating, Flood, Sedge, Umbrella: 250 g ai/ha, flooded paddy test, visual rating on 0 to 100 scale (0 no effect, 100 complete control) after 13 to 15 days; for Plant response rating, Sedge, Umbrella: Flood (flooded paddy test), 13 to 15 days
Procedure, shortened: as §3

[11] = Postemergence, 125 g ai/ha, 0 to 100 scale where 0 is no effect and 100 is complete control
[12] = Postemergence, 500 g ai/ha, 0 to 100 scale, 0 = no effect, 100 = complete control, approx. ten days
[13] = Preemergence, 125 g ai/ha, 0 to 100 scale, 0 = no effect, 100 = complete control
[14] = Preemergence, 500 g ai/ha, visual injury, 0 to 100 scale (0 no effect, 100 complete control), approx. ten days
[15] = 62 g ai/ha, scale of 0 to 100 where 0 is no effect and 100 is complete control
[16] = 125 g ai/ha, scale 0 to 100, 0 is no effect, 100 is complete control
[17] = Flood, 31 g ai/ha, scale 0 to 100 (0 no effect, 100 complete control)

CCCn1c(-c2ccccc2F)ncc(C(=O)C2=C(O)CCCC2=O)c1=O [Compound 101]
Plant response rating, Barnyardgrass [1, 11]: 80 | Plant response rating, Barnyardgrass [1, 12]: 90 | Plant response rating, Barnyardgrass [1, 13]: 20 | Plant response rating, Barnyardgrass [1, 14]: 70 | Plant response rating, Corn (corn (Zea mays); [11]): 0 | Plant response rating, Corn (corn (Zea mays); [12]): 10 | Plant response rating, Corn (corn (Zea mays); [13]): 0 | Plant response rating, Corn (corn (Zea mays); [14]): 0 | Plant response rating, Foxtail, Giant [2, 11]: 60 | Plant response rating, Foxtail, Giant [2, 12]: 80 | Plant response rating, Foxtail, Giant [2, 13]: 30 | Plant response rating, Foxtail, Giant [2, 14]: 50 | Plant response rating, Crabgrass, Large [3, 11]: 90 | Plant response rating, Crabgrass, Large [3, 12]: 90 | Plant response rating, Crabgrass, Large [3, 13]: 70 | Plant response rating, Crabgrass, Large [3, 14]: 90 | Plant response rating, Morningglory [4, 11]: 60 | Plant response rating, Morningglory [4, 12]: 70 | Plant response rating, Morningglory [4, 13]: 80 | Plant response rating, Morningglory [4, 14]: 80 | Plant response rating, Pigweed [5, 11]: 90 | Plant response rating, Pigweed [5, 12]: 100 | Plant response rating, Pigweed [5, 13]: 70 | Plant response rating, Pigweed [5, 14]: 80 | Plant response rating, Velvetleaf [6, 11]: 100 | Plant response rating, Velvetleaf [6, 12]: 100 | Plant response rating, Velvetleaf [6, 13]: 80 | Plant response rating, Velvetleaf [6, 14]: 100 | Plant response rating, Wheat [7, 11]: 0 | Plant response rating, Wheat [7, 12]: 0 | Plant response rating, Wheat [7, 13]: 0 | Plant response rating, Wheat [7, 14]: 0 | Plant response rating, Flood, Barnyardgrass [8]: 40 | Plant response rating, Barnyardgrass [8, 15]: 40 | Plant response rating, Barnyardgrass [8, 16]: 40 | Barnyardgrass plant response rating [8, 17]: 20 | Plant response rating, Flood, Ducksalad [9]: 30 | Plant response rating, Ducksalad [9, 15]: 30 | Plant response rating, Ducksalad [9, 16]: 30 | Ducksalad plant response rating [9, 17]: 20 | Plant response rating, Flood, Rice (rice (Oryza sativa)): 20 | Plant response rating, Rice (rice (Oryza sativa); [15]): 0 | Plant response rating, Rice (rice (Oryza sativa); [16]): 0 | Rice plant response rating (rice (Oryza sativa); [17]): 0 | Plant response rating, Flood, Sedge, Umbrella [10]: 65 | Plant response rating, Sedge, Umbrella [10, 15]: 20 | Plant response rating, Sedge, Umbrella [10, 16]: 30 | Sedge, Umbrella plant response rating [10, 17]: 0

CCCn1c(-c2ccc(OC)cc2)ncc(C(=O)C2=C(O)CCCC2=O)c1=O [Compound 112]
Plant response rating, Barnyardgrass [1, 11]: 60 | Plant response rating, Barnyardgrass [1, 12]: 90 | Plant response rating, Barnyardgrass [1, 13]: 0 | Plant response rating, Barnyardgrass [1, 14]: 80 | Plant response rating, Corn (corn (Zea mays); [11]): 0 | Plant response rating, Corn (corn (Zea mays); [12]): 20 | Plant response rating, Corn (corn (Zea mays); [13]): 0 | Plant response rating, Corn (corn (Zea mays); [14]): 0 | Plant response rating, Foxtail, Giant [2, 11]: 70 | Plant response rating, Foxtail, Giant [2, 12]: 80 | Plant response rating, Foxtail, Giant [2, 13]: 20 | Plant response rating, Foxtail, Giant [2, 14]: 60 | Plant response rating, Crabgrass, Large [3, 11]: 80 | Plant response rating, Crabgrass, Large [3, 12]: 90 | Plant response rating, Crabgrass, Large [3, 13]: 60 | Plant response rating, Crabgrass, Large [3, 14]: 100 | Plant response rating, Morningglory [4, 11]: 90 | Plant response rating, Morningglory [4, 12]: 100 | Plant response rating, Morningglory [4, 13]: 0 | Plant response rating, Morningglory [4, 14]: 80 | Plant response rating, Pigweed [5, 11]: 90 | Plant response rating, Pigweed [5, 12]: 100 | Plant response rating, Pigweed [5, 13]: 20 | Plant response rating, Pigweed [5, 14]: 100 | Plant response rating, Velvetleaf [6, 11]: 100 | Plant response rating, Velvetleaf [6, 12]: 100 | Plant response rating, Velvetleaf [6, 13]: 40 | Plant response rating, Velvetleaf [6, 14]: 70 | Plant response rating, Wheat [7, 11]: 0 | Plant response rating, Wheat [7, 12]: 10 | Plant response rating, Wheat [7, 13]: 0 | Plant response rating, Wheat [7, 14]: 0 | Plant response rating, Flood, Barnyardgrass [8]: 40 | Plant response rating, Barnyardgrass [8, 15]: 35 | Plant response rating, Flood, Ducksalad [9]: 95 | Plant response rating, Ducksalad [9, 15]: 85 | Plant response rating, Flood, Rice (rice (Oryza sativa)): 15 | Plant response rating, Rice (rice (Oryza sativa); [15]): 0 | Plant response rating, Flood, Sedge, Umbrella [10]: 90 | Plant response rating, Sedge, Umbrella [10, 15]: 85

O=C1CCCC(O)=C1C(=O)c1cnc(C2CCC2)n(-c2ccccc2)c1=O [Compound 114]
Plant response rating, Barnyardgrass [1, 11]: 70 | Plant response rating, Barnyardgrass [1, 12]: 90 | Plant response rating, Barnyardgrass [1, 13]: 30 | Plant response rating, Barnyardgrass [1, 14]: 90 | Plant response rating, Corn (corn (Zea mays); [11]): 10 | Plant response rating, Corn (corn (Zea mays); [12]): 50 | Plant response rating, Corn (corn (Zea mays); [13]): 0 | Plant response rating, Corn (corn (Zea mays); [14]): 0 | Plant response rating, Foxtail, Giant [2, 11]: 60 | Plant response rating, Foxtail, Giant [2, 12]: 80 | Plant response rating, Foxtail, Giant [2, 13]: 40 | Plant response rating, Foxtail, Giant [2, 14]: 80 | Plant response rating, Crabgrass, Large [3, 11]: 80 | Plant response rating, Crabgrass, Large [3, 12]: 90 | Plant response rating, Crabgrass, Large [3, 13]: 90 | Plant response rating, Crabgrass, Large [3, 14]: 100 | Plant response rating, Morningglory [4, 11]: 90 | Plant response rating, Morningglory [4, 12]: 100 | Plant response rating, Morningglory [4, 13]: 0 | Plant response rating, Morningglory [4, 14]: 80 | Plant response rating, Pigweed [5, 11]: 100 | Plant response rating, Pigweed [5, 12]: 100 | Plant response rating, Pigweed [5, 13]: 100 | Plant response rating, Pigweed [5, 14]: 100 | Plant response rating, Velvetleaf [6, 11]: 100 | Plant response rating, Velvetleaf [6, 12]: 100 | Plant response rating, Velvetleaf [6, 13]: 70 | Plant response rating, Velvetleaf [6, 14]: 100 | Plant response rating, Wheat [7, 11]: 0 | Plant response rating, Wheat [7, 12]: 0 | Plant response rating, Wheat [7, 13]: 0 | Plant response rating, Wheat [7, 14]: 20 | Plant response rating, Flood, Barnyardgrass [8]: 40 | Plant response rating, Barnyardgrass [8, 15]: 20 | Plant response rating, Flood, Ducksalad [9]: 75 | Plant response rating, Ducksalad [9, 15]: 65 | Plant response rating, Flood, Rice (rice (Oryza sativa)): 20 | Plant response rating, Rice (rice (Oryza sativa); [15]): 0 | Plant response rating, Flood, Sedge, Umbrella [10]: 40 | Plant response rating, Sedge, Umbrella [10, 15]: 30
